In brackets after ≈: the same amount, converted by molar mass.
Legend:
Type in all cases: functional
[1] = test system: Mycobacterium tuberculosis; assay: Antimycobacterial activity against Mycobacterium tuberculosis CNCTC My 331/88 after 14 days by micromethod; conditions: CNCTC My 331/88, 336 h
[2] = test system: Mycobacterium tuberculosis; assay: Antimycobacterial activity against Mycobacterium tuberculosis CNCTC My 331/88 after 21 days by micromethod; conditions: CNCTC My 331/88, 504 h
Mycobacterium avium [3] = assay: Antimycobacterial activity against Mycobacterium avium CNCTC My 330/88 after 14 days by micromethod; conditions: CNCTC My 330/88, 336 h
Mycobacterium avium [4] = assay: Antimycobacterial activity against Mycobacterium avium CNCTC My 330/88 after 21 days by micromethod; conditions: CNCTC My 330/88, 504 h
Mycobacterium kansasii [5] = assay: Antimycobacterial activity against Mycobacterium kansasii CNCTC My 235/80 after 7 days by micromethod; conditions: CNCTC My 235/80, 168 h
Mycobacterium kansasii [6] = assay: Antimycobacterial activity against Mycobacterium kansasii CNCTC My 235/80 after 14 days by micromethod; conditions: CNCTC My 235/80, 336 h
Mycobacterium kansasii [7] = assay: Antimycobacterial activity against Mycobacterium kansasii CNCTC My 235/80 after 21 days by micromethod; conditions: CNCTC My 235/80, 504 h
Mycobacterium kansasii [8] = assay: Antimycobacterial activity against Mycobacterium kansasii 6509/96 after 7 days by micromethod; conditions: 6509/96, 168 h
Mycobacterium kansasii [9] = assay: Antimycobacterial activity against Mycobacterium kansasii 6509/96 after 14 days by micromethod; conditions: 6509/96, 336 h
Mycobacterium kansasii [10] = assay: Antimycobacterial activity against Mycobacterium kansasii 6509/96 after 21 days by micromethod; conditions: 6509/96, 504 h

Structure (SMILES) | MIC [1] | MIC [2] | MIC (Mycobacterium avium [3]) | MIC (Mycobacterium avium [4]) | MIC (Mycobacterium kansasii [5]) | MIC (Mycobacterium kansasii [6]) | MIC (Mycobacterium kansasii [7]) | MIC (Mycobacterium kansasii [8]) | MIC (Mycobacterium kansasii [9]) | MIC (Mycobacterium kansasii [10])
O=[N+]([O-])c1cc(CSc2nnnn2-c2cccc(F)c2)cc([N+](=O)[O-])c1 | 16 µM (≈ 6.02 µg/mL) | 32 µM (≈ 12 µg/mL) | 250 µM (≈ 94.1 µg/mL) | 250 µM (≈ 94.1 µg/mL) | 4 µM (≈ 1.51 µg/mL) | 4 µM (≈ 1.51 µg/mL) | 8 µM (≈ 3.01 µg/mL) | 4 µM (≈ 1.51 µg/mL) | 8 µM (≈ 3.01 µg/mL) | 8 µM (≈ 3.01 µg/mL)
O=[N+]([O-])c1cc(C[S+]([O-])c2nnnn2-c2ccccc2)cc([N+](=O)[O-])c1 (stereo not given) | 62 µM (≈ 23.2 µg/mL) | 62 µM (≈ 23.2 µg/mL) | 125 µM (≈ 46.8 µg/mL) | 125 µM (≈ 46.8 µg/mL) | 62 µM (≈ 23.2 µg/mL) | 250 µM (≈ 93.6 µg/mL) | 250 µM (≈ 93.6 µg/mL) | 125 µM (≈ 46.8 µg/mL) | 250 µM (≈ 93.6 µg/mL) | 250 µM (≈ 93.6 µg/mL)
O=[N+]([O-])c1cc(CSCc2ccccc2)cc([N+](=O)[O-])c1 | 250 µM (≈ 76.1 µg/mL) | 250 µM (≈ 76.1 µg/mL) | 125 µM (≈ 38 µg/mL) | 125 µM (≈ 38 µg/mL) | 125 µM (≈ 38 µg/mL) | 125 µM (≈ 38 µg/mL) | 125 µM (≈ 38 µg/mL) | 125 µM (≈ 38 µg/mL) | 125 µM (≈ 38 µg/mL) | 125 µM (≈ 38 µg/mL)
CCCCCCn1nnnc1SCc1cc([N+](=O)[O-])cc([N+](=O)[O-])c1 | 1 µM (≈ 0.366 µg/mL) | 2 µM (≈ 0.733 µg/mL) | 32 µM (≈ 11.7 µg/mL) | 62 µM (≈ 22.7 µg/mL) | 2 µM (≈ 0.733 µg/mL) | 4 µM (≈ 1.47 µg/mL) | 8 µM (≈ 2.93 µg/mL) | 2 µM (≈ 0.733 µg/mL) | 4 µM (≈ 1.47 µg/mL) | 8 µM (≈ 2.93 µg/mL)
O=[N+]([O-])c1cc(CSc2nnnn2-c2ccccc2)cc([N+](=O)[O-])c1 | 4 µM (≈ 1.43 µg/mL) | 4 µM (≈ 1.43 µg/mL) | 62 µM (≈ 22.2 µg/mL) | 62 µM (≈ 22.2 µg/mL) | 2 µM (≈ 0.717 µg/mL) | 4 µM (≈ 1.43 µg/mL) | 16 µM (≈ 5.73 µg/mL) | 2 µM (≈ 0.717 µg/mL) | 2 µM (≈ 0.717 µg/mL) | 4 µM (≈ 1.43 µg/mL)
COc1cc(-n2nnnc2SCc2cc([N+](=O)[O-])cc([N+](=O)[O-])c2)cc(OC)c1OC | 16 µM (≈ 7.17 µg/mL) | 16 µM (≈ 7.17 µg/mL) | 250 µM (≈ 112 µg/mL) | 250 µM (≈ 112 µg/mL) | 16 µM (≈ 7.17 µg/mL) | 32 µM (≈ 14.3 µg/mL) | 32 µM (≈ 14.3 µg/mL) | 16 µM (≈ 7.17 µg/mL) | 16 µM (≈ 7.17 µg/mL) | 32 µM (≈ 14.3 µg/mL)
COc1ccc(-n2nnnc2[S+]([O-])Cc2cc([N+](=O)[O-])cc([N+](=O)[O-])c2)cc1 (stereo not given) | 62 µM (≈ 25.1 µg/mL) | 62 µM (≈ 25.1 µg/mL) | 250 µM (≈ 101 µg/mL) | 250 µM (≈ 101 µg/mL) | 62 µM (≈ 25.1 µg/mL) | 125 µM (≈ 50.5 µg/mL) | 125 µM (≈ 50.5 µg/mL) | 32 µM (≈ 12.9 µg/mL) | 125 µM (≈ 50.5 µg/mL) | 125 µM (≈ 50.5 µg/mL)
COC(=O)c1cccc(-n2nnnc2SCc2cc([N+](=O)[O-])cc([N+](=O)[O-])c2)c1 | 8 µM (≈ 3.33 µg/mL) | 16 µM (≈ 6.66 µg/mL) | 250 µM (≈ 104 µg/mL) | 250 µM (≈ 104 µg/mL) | 500 µM (≈ 208 µg/mL) | 500 µM (≈ 208 µg/mL) | 500 µM (≈ 208 µg/mL) | 500 µM (≈ 208 µg/mL) | 500 µM (≈ 208 µg/mL) | 500 µM (≈ 208 µg/mL)
O=[N+]([O-])c1cc(COc2nnnn2-c2ccc(Cl)cc2)cc([N+](=O)[O-])c1 | 2 µM (≈ 0.753 µg/mL) | 4 µM (≈ 1.51 µg/mL) | 32 µM (≈ 12.1 µg/mL) | 62 µM (≈ 23.4 µg/mL) | 8 µM (≈ 3.01 µg/mL) | 16 µM (≈ 6.03 µg/mL) | 32 µM (≈ 12.1 µg/mL) | 8 µM (≈ 3.01 µg/mL) | 16 µM (≈ 6.03 µg/mL) | 32 µM (≈ 12.1 µg/mL)
COc1ccc(-n2nnnc2OCc2cc([N+](=O)[O-])cc([N+](=O)[O-])c2)cc1 | 2 µM (≈ 0.745 µg/mL) | 2 µM (≈ 0.745 µg/mL) | 16 µM (≈ 5.96 µg/mL) | 32 µM (≈ 11.9 µg/mL) | 4 µM (≈ 1.49 µg/mL) | 8 µM (≈ 2.98 µg/mL) | 16 µM (≈ 5.96 µg/mL) | 4 µM (≈ 1.49 µg/mL) | 16 µM (≈ 5.96 µg/mL) | 16 µM (≈ 5.96 µg/mL)
O=[N+]([O-])c1cc(CSc2ccccc2)cc([N+](=O)[O-])c1 | 250 µM (≈ 72.6 µg/mL) | 250 µM (≈ 72.6 µg/mL) | 250 µM (≈ 72.6 µg/mL) | 250 µM (≈ 72.6 µg/mL) | 250 µM (≈ 72.6 µg/mL) | 250 µM (≈ 72.6 µg/mL) | 250 µM (≈ 72.6 µg/mL) | 500 µM (≈ 145 µg/mL) | 500 µM (≈ 145 µg/mL) | 500 µM (≈ 145 µg/mL)
